molecular target: GST-Xa-hAAK1 (Homo sapiens (Human), UniProt Q2M2I8); assay: biochemical; conditions: not given
Procedure: The assays were performed in U-bottom 384-well plates. […] The reactions were initiated by the combination of bacterially expressed, GST-Xa-hAAK1 with substrates and test compounds. The reactions were incubated at room temperature for 3 hours and terminated by adding 60 μl of 35 mM EDTA buffer to each sample. The reactions were analyzed on the Caliper LabChip 3000 (Caliper, Hopkinton, Mass.) by electrophoretic separation of the fluorescent substrate and phosphorylated product. […] Compounds were dissolved at 10 mM in dimethylsulfoxide (DMSO) and evaluated at eleven concentrations. IC50 values were derived by non-linear regression analysis.

Sequence of GST-Xa-hAAK1 (Q2M2I8 whole entry): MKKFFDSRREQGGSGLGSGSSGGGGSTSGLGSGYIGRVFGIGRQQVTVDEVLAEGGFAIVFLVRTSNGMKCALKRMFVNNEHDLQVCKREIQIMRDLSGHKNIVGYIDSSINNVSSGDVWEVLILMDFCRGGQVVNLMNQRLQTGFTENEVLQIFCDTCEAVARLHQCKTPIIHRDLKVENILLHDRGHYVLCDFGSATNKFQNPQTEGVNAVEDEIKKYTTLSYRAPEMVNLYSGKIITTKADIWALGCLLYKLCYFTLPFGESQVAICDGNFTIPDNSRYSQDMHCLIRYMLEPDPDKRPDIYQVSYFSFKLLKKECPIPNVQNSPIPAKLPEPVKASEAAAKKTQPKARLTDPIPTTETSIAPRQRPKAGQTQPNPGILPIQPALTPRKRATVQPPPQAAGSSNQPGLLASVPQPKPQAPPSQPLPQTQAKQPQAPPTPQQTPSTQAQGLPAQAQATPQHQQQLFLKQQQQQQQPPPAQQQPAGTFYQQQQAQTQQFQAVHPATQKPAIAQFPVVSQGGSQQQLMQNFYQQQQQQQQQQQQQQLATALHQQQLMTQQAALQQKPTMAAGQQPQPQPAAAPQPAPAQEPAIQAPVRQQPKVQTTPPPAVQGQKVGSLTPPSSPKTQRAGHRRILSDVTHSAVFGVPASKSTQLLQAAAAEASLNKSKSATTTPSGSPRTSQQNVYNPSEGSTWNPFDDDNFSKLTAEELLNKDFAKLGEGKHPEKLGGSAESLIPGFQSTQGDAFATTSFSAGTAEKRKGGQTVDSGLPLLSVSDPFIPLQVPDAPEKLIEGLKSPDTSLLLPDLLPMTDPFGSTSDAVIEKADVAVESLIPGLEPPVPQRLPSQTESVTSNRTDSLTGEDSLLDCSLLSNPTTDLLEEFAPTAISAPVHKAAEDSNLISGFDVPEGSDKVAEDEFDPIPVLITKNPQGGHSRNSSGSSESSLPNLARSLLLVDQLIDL

Compound | IC50 [nM]
N[C@@H](c1nc2cc(-c3ccncc3)ccc2[nH]1)C1CC1 [Example 74, (R)-cyclopropyl (5-(pyridin-4-yl)-1H-benzo[d]imidazol-2-yl)methanamine] | 228
CC(C)CCc1nc2ccc(-c3cnco3)cc2o1 [Example 100, 2-isopentyl-6-(oxazol-5-yl)benzo[d]oxazole] | 1020
COc1cc2nc([C@H](N)CC(C)C)[nH]c2cc1-c1ccncc1 [Example 47, (R)-1-(5-methoxy-6-(pyridin-4-yl)-1H-benzo[d]imidazol-2-yl)-3-methylbutan-1-amine] | 487
CNC(CC(C)C)c1nc2cc(-c3ccncc3)c(OC)cc2[nH]1 (centres unmarked) [Example 73, 1-(6-methoxy-5-(pyridin-4-yl)-1H-benzo[d]imidazol-2-yl)-N,3-dimethylbutan-1-amine] | 180
CC(C)C[C@@H](N)c1nc2cc(-c3ccnc4[nH]ccc34)ccc2[nH]1 [Example 6, (R)-1-(5-(1H-pyrrolo[2,3-b]pyridin-4-yl)-1H-benzo[d]imidazol-2-yl)-3-methylbutan-1-amine] | 5
CC(C)C[C@@H](N)c1nc2cc(-c3cc[nH]n3)ccc2[nH]1 [Example 3, (R)-1-(5-(1H-pyrazol-3-yl)-1H-benzo[d]imidazol-2-yl)-3-methylbutan-1-amine] | 56
c1cc(-c2ccc3[nH]c(CC4CCCCC4)nc3c2)ccn1 [Example 72, 2-(cyclohexylmethyl)-5-(pyridin-4-yl)-1H-benzo[d]imidazole] | 108
COc1cc2[nH]c([C@H](N)C3CCCC3)nc2cc1-c1ccncc1 [Example 82, (R)-cyclopentyl(6-methoxy-5-(pyridin-4-yl)-1H-benzo[d]imidazol-2-yl)methanamine] | 1800
Cc1noc(C)c1-c1ccc2[nH]c([C@H](N)CC(C)C)nc2c1 [Example 78, (R)-1-(5-(3,5-dimethylisoxazol-4-yl)-1H-benzo[d]imidazol-2-yl)-3-methylbutan-1-amine] | 510
COc1cc2[nH]c(C(N)CC3CCCC3)nc2cc1-c1cnco1 (centres unmarked) [Example 71, 2-cyclopentyl-1-(6-methoxy-5-(oxazol-5-yl)-1H-benzo[d]imidazol-2-yl)ethanamine] | 70
CC(c1nc2cc(-c3ccncc3)ccc2[nH]1)N1CCOCC1 (centres unmarked) [Example 79, 4-(1-(5-(pyridin-4-yl)-1H-benzo[d]imidazol-2-yl)ethyl)morpholine] | 591
CC(C)N1CC(c2nc3ccc(-c4ccncc4)cc3[nH]2)CC1=O (centres unmarked) [Example 51, 1-isopropyl-4-(6-(pyridin-4-yl)-1H-benzo[d]imidazol-2-yl)pyrrolidin-2-one] | 783
CC1CCCC(c2nc3ccc(-c4ccncc4)cc3[nH]2)C1 (centres unmarked) [Example 81, 2-(3-methylcyclohexyl)-6-(pyridin-4-yl)-1H-benzo[d]imidazole] | 1430
CN[C@H](CC(C)C)c1nc2cc(-c3ccnc(N(C)C)c3)ccc2[nH]1 [Example 75, (R)-N,N-dimethyl-4-(2-(3-methyl-1-(methylamino)butyl)-1H-benzo[d]imidazol-5-yl) pyridin-2-amine] | 244
CC(C)C[C@@H](N)c1nc2ccc(-c3ccncc3)cc2n1CC(F)(F)F [Example 37, (R)-3-methyl-1-(6-(pyridin-4-yl)-1-(2,2,2-trifluoroethyl)-1H-benzo[d]imidazol-2-yl)butan-1-amine] | 19

same assay, conditions: ATP 22 μM; GST-Xa-hAAK1 3.5 nM; room temperature for 3 hours; Caliper LabChip 3000; read-out: AAK1 IC50

Compound | IC50 [nM]
Cc1n[nH]c(C)c1-c1ccc2[nH]c([C@H](N)CC(C)C)nc2c1 [Example 19, (R)-1-(5-(3,5-dimethyl-1H-pyrazol-4-yl)-1H-benzo[d]imidazol-2-yl)-3-methylbutan-1-amine] | 41
CC(C)CC(N)c1nc2cc(-c3ccncc3)ccc2o1 (centres unmarked) [Example 83, 3-methyl-1-(5-(pyridin-4-yl)benzo[d]oxazol-2-yl)butan-1-amine] | 71
CC(C)C[C@@H](N)c1nc2ccc(-c3ccncc3)cc2n1C [Example 42, (R)-3-methyl-1-(1-methyl-6-(pyridin-4-yl)-1H-benzo[d]imidazol-2-yl)butan-1-amine] | 159
c1cc(-c2ccc3[nH]c(CC4CCCC4)nc3c2)ccn1 [Example 99, 2-(cyclopentylmethyl)-5-(pyridin-4-yl)-1H-benzo[d]imidazole] | 105
COCCn1c([C@H](N)CC(C)C)nc2ccc(-c3cnco3)cc21 [Example 39, (R)-1-(1-(2-methoxyethyl)-6-(oxazol-5-yl)-1H-benzo[d]imidazol-2-yl)-3-methylbutan-1-amine] | 6740
COc1cc(-c2ccncc2)cc2[nH]c(CCC(C)C)nc12 [Example 25, 2-isopentyl-4-methoxy-6-(pyridin-4-yl)-1H-benzo[d]imidazole] | 380
CC(C)CC(N)c1nc2cc(-c3ccncc3)ccc2s1 (centres unmarked) [Example 95, 3-methyl-1-(5-(pyridin-4-yl)benzo[d]thiazol-2-yl)butan-1-amine] | 100
COc1cc2[nH]c([C@H](N)C3CCCCC3)nc2cc1-c1cnco1 [Example 64, (R)-cyclohexyl(6-methoxy-5-(oxazol-5-yl)-1H-benzo[d]imidazol-2-yl)methanamine] | 16
CN[C@H](CC(C)C)c1nc2ccc(-c3cnco3)cc2[nH]1 [Example 101, (R)-N,3-dimethyl-1-(6-(oxazol-5-yl)-1H-benzo[d]imidazol-2-yl) butan-1-amine] | 34
CC(C)(F)CC(N)c1nc2cc(-c3ccncc3)ccc2[nH]1 (centres unmarked) [Example 76, 3-fluoro-3-methyl-1-(5-(pyridin-4-yl)-1H-benzo[d]imidazol-2-yl)butan-1-amine] | 350
COc1cc(-c2ccc3[nH]c(CCC(C)C)nc3c2)ccn1 [Example 57, 2-isopentyl-5-(2-methoxypyridin-4-yl)-1H-benzo[d]imidazole] | 1550
CC(C)C[C@@H](N)c1nc2cc(-c3ccnc(F)c3)ccc2[nH]1 [Example 12, (R)-1-(5-(2-fluoropyridin-4-yl)-1H-benzo[d]imidazol-2-yl)-3-methylbutan-1-amine] | 148
CCn1c([C@H](N)CC(C)C)nc2ccc(-c3cnco3)cc21 [Example 32, (R)-1-(1-ethyl-6-(oxazol-5-yl)-1H-benzo[d]imidazol-2-yl)-3-methylbutan-1-amine] | 450
COc1cc(-c2cnco2)cc2[nH]c(CCC(C)C)nc12 [Example 26, 5-(2-isopentyl-4-methoxy-1H-benzo[d]imidazol-6-yl)oxazole] | 217
CNc1cc(-c2ccc3[nH]c([C@@H](CC(C)C)NC)nc3c2)ccn1 [Example 61, (R)-N-methyl-4-(2-(3-methyl-1-(methylamino)butyl)-1H-benzo[d]imidazol-5-yl) pyridin-2-amine] | 8
c1cc(-c2ccc3oc(CCC4CCCC4)nc3c2)ccn1 [Example 92, 2-(2-cyclopentylethyl)-5-(pyridin-4-yl)benzo[d]oxazole] | 1700
COCCn1c([C@H](N)CC(C)C)nc2ccc(-c3ccncc3)cc21 [Example 38, (R)-1-(1-(2-methoxyethyl)-6-(pyridin-4-yl)-1H-benzo[d]imidazol-2-yl)-3-methylbutan-1-amine] | 531
CC(C)CC(CN)c1nc2cc(-c3cnco3)ccc2[nH]1 (centres unmarked) [Example 65, 4-methyl-2-(5-(oxazol-5-yl)-1H-benzo[d]imidazol-2-yl)pentan-1-amine] | 26
CC(C)CC(C)c1nc2ccc(-c3ccncc3)cc2o1 (centres unmarked) [Example 87, 2-(4-methylpentan-2-yl)-6-(pyridin-4-yl)benzo[d]oxazole] | 92
CC(C)C[C@@H](N)c1nc2ccc(-c3cnco3)cc2n1CC(F)(F)F [Example 36, (R)-3-methyl-1-(6-(oxazol-5-yl)-1-(2,2,2-trifluoroethyl)-1H-benzo[d]imidazol-2-yl)butan-1-amine] | 172
COCCN[C@H](CC(C)C)c1nc2cc(-c3cnco3)ccc2[nH]1 [Example 102, (R)-N-(2-methoxyethyl)-3-methyl-1-(5-(oxazol-5-yl)-1H-benzo[d]imidazol-2-yl)butan-1-amine] | 680
CCn1c([C@H](N)CC(C)C)nc2ccc(-c3cn[nH]c3)cc21 [Example 34, (R)-1-(1-ethyl-6-(1H-pyrazol-4-yl)-1H-benzo[d]imidazol-2-yl)-3-methylbutan-1-amine] | 98
CC(C)C[C@H](N)c1nc2ccc(-c3ccncc3)cc2[nH]1 [Example 2, (S)-3-methyl-1-(6-(pyridin-4-yl)-1H-benzo[d]imidazol-2-yl)butan-1-amine] | 53
CN[C@H](CC(C)C)c1nc2cc(-c3ccnc(N)c3)ccc2[nH]1 [Example 59, (R)-4-(2-(3-methyl-1-(methylamino)butyl)-1H-benzo[d]imidazol-5-yl)pyridin-2-amine] | 7
(R)-1-(5-(1H-pyrazolo[3, 4-b]pyridin-4-yl)-1H-benzo[d]imidazol-2-yl)-3-methylbutan-1-amine [Example 7] | 10
COc1cnccc1-c1cc(OC)c2[nH]c([C@H](N)CC(C)C)nc2c1 [Example 23, (R)-1-(7-methoxy-5-(3-methoxypyridin-4-yl)-1H-benzo[d]imidazol-2-yl)-3-methylbutan-1-amine] | 553

same assay, conditions: read-out: AAK1 IC50

Compound | IC50 [nM]
COc1cc(-c2ccc3[nH]c([C@H](N)CC(C)C)nc3c2)ccn1 [Example 13, (R)-1-(5-(2-methoxypyridin-4-yl)-1H-benzo[d]imidazol-2-yl)-3-methylbutan-1-amine] | 171
COc1cc(-c2cc3nc([C@H](N)CC(C)C)[nH]c3cc2OC)ccn1 [Example 28, (R)-1-(6-methoxy-5-(2-methoxypyridin-4-yl)-1H-benzo[d]imidazol-2-yl)-3-methylbutan-1-amine] | 2000
CC(C)C[C@@H](N)c1nc2cc(F)c(-c3cnco3)cc2[nH]1 [Example 31, (R)-1-(5-fluoro-6-(oxazol-5-yl)-1H-benzo[d]imidazol-2-yl)-3-methylbutan-1-amine] | 32

— patent US10035777B2, “Heterocyclic kinase inhibitors” (priority 2014, dated 2018)
